Data set [1] deals with T1, Wee-1 kinase (Homo sapiens, UniProt P30291).
T1 construct: purchased Invitrogen PV3817
Put plainly: Measurement of Wee-1 kinase activity (ADP-Glo luminescent kit). It is filed as biochemical. A digest of the protocol: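 ADP-Glo luminescence reads ADP made over 1 h at RT, after an aliquot of 30 μM ATP and 2.0 μg/mL poly(Lys,Tyr 4:1) substrate. Before that, the kinase sat 30 min with inhibitor in Tris-HCl/MgCl2 buffer with BSA and DTT. IC50 came from regression of percent inhibition.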

Data set [2] relates to phospho-cdc2 (Tyr15) in HT-29 cells. The experiment in a line: Effect on Cdc2 phosphorylation at Tyr15, Cell-Based ELISA Base Kit (Method 3). The following applies: Homo sapiens, HT-29, 8 h, eight hours incubation, normalized to total cdc2, read-out: HT29 pCDC2 method 3. A digest of the protocol: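 HT-29 cells were treated with compounds for 8 h at 37 °C, then fixed in 4% formaldehyde. Phospho-cdc2 (Tyr15) and total cdc2 were read by dual-fluorogenic cell-based ELISA at 600/450 nm. Phospho signal was normalized to total cdc2 and expressed as % of DMSO control, and EC50 came from non-linear regression.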
(ELISA stands for enzyme-linked immunosorbent assay.)

Data set [3] in a line: CLint estimates using human liver microsomes (Method 4). The following applies: pH 7.4, 1 μM compound, read-out: Mics - CLint (HLM CLint). It is filed as in vitro ADME. In outline:
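Depletion measured by LC/MS/MS in MRM mode over 2–50 min after starting reactions with 1 mM NADPH. Incubations used 0.5 mg/mL human liver microsomal protein, 1 μM compound, 0.1% DMSO, pH 7.4 phosphate buffer, 37 °C. ln peak area plotted against time; the gradient gave t½ and intrinsic clearance.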

Molecules are shown by their SMILES.

T1 sequence (P30291 whole entry): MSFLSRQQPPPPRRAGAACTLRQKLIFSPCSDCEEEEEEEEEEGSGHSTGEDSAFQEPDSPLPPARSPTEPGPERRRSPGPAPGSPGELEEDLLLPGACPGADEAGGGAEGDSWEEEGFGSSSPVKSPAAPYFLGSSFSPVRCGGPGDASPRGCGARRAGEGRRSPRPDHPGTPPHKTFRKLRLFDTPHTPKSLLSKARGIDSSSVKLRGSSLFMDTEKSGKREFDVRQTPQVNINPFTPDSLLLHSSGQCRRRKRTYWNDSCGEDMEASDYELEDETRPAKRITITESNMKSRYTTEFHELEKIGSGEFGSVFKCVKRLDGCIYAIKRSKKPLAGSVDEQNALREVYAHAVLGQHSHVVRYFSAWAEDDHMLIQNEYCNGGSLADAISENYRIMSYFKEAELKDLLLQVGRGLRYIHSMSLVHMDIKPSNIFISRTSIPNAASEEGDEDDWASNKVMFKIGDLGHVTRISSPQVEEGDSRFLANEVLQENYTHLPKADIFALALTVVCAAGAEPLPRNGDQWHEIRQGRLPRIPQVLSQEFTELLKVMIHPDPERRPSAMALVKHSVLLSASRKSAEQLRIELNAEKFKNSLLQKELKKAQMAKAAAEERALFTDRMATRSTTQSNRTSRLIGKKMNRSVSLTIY

For `CC(=O)N1CCN(c2ccc(Nc3ncc4c(n3)N(C)CN(c3c(Cl)cccc3Cl)C4=O)cc2CN(C)C)CC1` [Example 144, 7-((4-(4-acetylpiperazin-1-yl)-3-((dimethylamino)methyl)phenyl)amino)-3-(2,6-dichlorophenyl)-1-methyl-2,3-dihydropyrimido[4,5-d]pyrimidin-4(1H)-one], the IC50 (in general, the midpoint of a concentration-inhibition curve) in data set [1] is at most 10 nM. Moreover, the EC50 in data set [2] is 100 to 1000 nM. Moreover, in data set [3], the microsomal CLint at 1 μM is 15 to 50 µL/min/mg.
`C[C@@H]1CN(c2ccc(Nc3ncc4c(n3)N(C)CN(c3c(Cl)cccc3Cl)C4=O)cc2CO)CCN1C` [Example 46, (R)-3-(2,6-dichlorophenyl)-7-((4-(3,4-dimethylpiperazin-1-yl)-3-(hydroxymethyl)phenyl)amino)-1-methyl-2,3-dihydropyrimido[4,5-d]pyrimidin-4(1H)-one]: the IC50 in data set [1] was at most 10 nM. In addition, in data set [2], the EC50 was 100 to 1000 nM. Also, the microsomal CLint at 1 μM in data set [3] is at most 15 µL/min/mg.
For `CNCC(=O)N1CCN(c2ccc(Nc3ncc4c(n3)N(C)CN(c3c(Cl)cccc3Cl)C4=O)cc2)CC1` [Example 124, 3-(2,6-dichlorophenyl)-1-methyl-7-((4-(4-(2-(methylamino)acetyl)piperazin-1-yl)phenyl)amino)-2,3-dihydropyrimido[4,5-d]pyrimidin-4(1H)-one], in data set [1], the IC50 is at most 10 nM. Further, in data set [2], the EC50 was in the range of 100 to 1000 nM. The microsomal CLint at 1 μM in data set [3] was at most 15 µL/min/mg.
Take `[2H]C([2H])([2H])N1CN(c2c(Cl)cccc2Cl)C(=O)c2cnc(Nc3ccc(N4CCN[C@H](C)C4)cc3)nc21` [Example 78, (R)-3-(2,6-dichlorophenyl)-1-d3-methyl-7-((4-(3-methylpiperazin-1-yl)phenyl)amino)-2,3-dihydropyrimido[4,5-d]pyrimidin-4(1H)-one]: in data set [1], the IC50 is at most 10 nM. Further, in data set [2], the EC50 was in the range of 100 to 1000 nM. Also, the microsomal CLint at 1 μM in data set [3] was at most 15 µL/min/mg.
For `CCN1CN(c2c(Cl)cccc2Cl)C(=O)c2cnc(Nc3ccc(N4C[C@@H](C)N[C@@H](C)C4)c(CO)c3)nc21` [Example 170, 3-(2,6-dichlorophenyl)-7-((4-((3S,5R)-3,5-dimethylpiperazin-1-yl)-3-(hydroxymethyl)phenyl)amino)-1-ethyl-2,3-dihydropyrimido[4,5-d]pyrimidin-4(1H)-one] the same measures were at most 10 nM, 100 to 1000 nM and 15 to 50 µL/min/mg.
As to `CN(C)Cc1cc(Nc2ncc3c(n2)N(C)CN(c2c(Cl)cccc2Cl)C3=O)ccc1N1CCOCC1` [Example 154, 3-(2,6-dichlorophenyl)-7-((3-((dimethylamino)methyl)-4-morpholinophenyl)amino)-1-methyl-2,3-dihydropyrimido[4,5-d]pyrimidin-4(1H)-one], the IC50 in data set [1] was at most 10 nM. In addition, the EC50 in data set [2] lay in the range of 100 to 1000 nM. Moreover, in data set [3], the microsomal CLint at 1 μM was 15 to 50 µL/min/mg.
For `CNCc1cccc(N2CN(c3c(Cl)cccc3Cl)C(=O)c3cnc(Nc4ccc(N5CCOCC5)cc4)nc32)c1` [Example 168, 3-(2,6-dichlorophenyl)-1-(3-((methylamino)methyl)phenyl)-7-((4-morpholinophenyl)amino)-2,3-dihydropyrimido[4,5-d]pyrimidin-4(1H)-one] the same measures were at most 10 nM, 100 to 1000 nM and at most 15 µL/min/mg.
As to `CCN1CN(c2c(Cl)cccc2Cl)C(=O)c2cnc(Nc3ccc(N4CCNCC4)cc3)nc21` [Example 169, 3-(2,6-dichlorophenyl)-1-ethyl-7-((4-(piperazin-1-yl)phenyl)amino)-2,3-dihydropyrimido[4,5-d]pyrimidin-4(1H)-one], the IC50 in data set [1] was in the range of 10 to 100 nM. The EC50 in data set [2] is at least 1000 nM. The microsomal CLint at 1 μM in data set [3] is at most 15 µL/min/mg.
On the same counts, the results for `Cc1cc(Nc2ncc3c(n2)N(C)CN(c2c(Cl)cccc2Cl)C3=O)ccc1N1C[C@@H]2C[C@H]1CN2C` [Example 77, 3-(2,6-dichlorophenyl)-1-methyl-7-((3-methyl-4-((1S,4S)-5-methyl-2,5-diazabicyclo[2.2.1]heptan-2-yl)phenyl)amino)-2,3-dihydropyrimido[4,5-d]pyrimidin-4(1H)-one] are at most 10 nM, 100 to 1000 nM and 15 to 50 µL/min/mg.
On the same counts, the results for `CN1CCC(c2ccc(Nc3ncc4c(n3)N(C)CN(c3c(Cl)cccc3Cl)C4=O)cc2CO)CC1` [Example 165, 3-(2,6-dichlorophenyl)-7-((3-(hydroxymethyl)-4-(1-methylpiperidin-4-yl)phenyl)amino)-1-methyl-2,3-dihydropyrimido[4,5-d]pyrimidin-4(1H)-one] are at most 10 nM, 100 to 1000 nM and at most 15 µL/min/mg.
As for `C[C@@H]1CN(c2ccc(Nc3ncc4c(n3)N(C)CN(c3c(Cl)cccc3Cl)C4=O)cc2)C[C@H](C)N1` [Example 83, 3-(2,6-dichlorophenyl)-7-((4-((3R,5S)-3,5-dimethylpiperazin-1-yl)phenyl)amino)-1-methyl-2,3-dihydropyrimido[4,5-d]pyrimidin-4(1H)-one], the IC50 in data set [1] was at most 10 nM. Moreover, the EC50 in data set [2] lay in the range of 100 to 1000 nM. In addition, the microsomal CLint at 1 μM in data set [3] was 15 to 50 µL/min/mg.
`COC[C@H]1CN(c2ccc(Nc3ncc4c(n3)N(C)CN(c3c(Cl)cccc3Cl)C4=O)cc2CO)CCN1` [Example 135, (R)-3-(2,6-dichlorophenyl)-7-((3-(hydroxymethyl)-4-(3-(methoxymethyl)piperazin-1-yl)phenyl)amino)-1-methyl-2,3-dihydropyrimido[4,5-d]pyrimidin-4(1H)-one]: the IC50 in data set [1] was at most 10 nM. The EC50 in data set [2] lay within 100 to 1000 nM. The microsomal CLint at 1 μM in data set [3] is at most 15 µL/min/mg.
As to `CNCc1cc(Nc2ncc3c(n2)N(C)CN(c2c(Cl)cccc2Cl)C3=O)ccc1N1CCN(C(C)=O)CC1` [Example 143, 7-((4-(4-acetylpiperazin-1-yl)-3-((methylamino)methyl)phenyl)amino)-3-(2,6-dichlorophenyl)-1-methyl-2,3-dihydropyrimido[4,5-d]pyrimidin-4(1H)-one], in data set [1], the IC50 is at most 10 nM. Also, in data set [2], the EC50 was at least 1000 nM. Moreover, in data set [3], the microsomal CLint at 1 μM is at most 15 µL/min/mg.
Take `CN1CN(c2c(Cl)cccc2Cl)C(=O)c2cnc(Nc3ccc(N4CCNC[C@H]4CO)cc3)nc21` [Example 127, (S)-3-(2,6-dichlorophenyl)-7-((4-(2-(hydroxymethyl)piperazin-1-yl)phenyl)amino)-1-methyl-2,3-dihydropyrimido[4,5-d]pyrimidin-4(1H)-one]: the IC50 in data set [1] is at most 10 nM. Further, the EC50 in data set [2] was at least 1000 nM. Also, the microsomal CLint at 1 μM in data set [3] was at most 15 µL/min/mg.

Source of the values: patent US9850247B2 (Almac Discovery Limited, priority 2013, dated 2017).
